System: primary rat mixed cortical cells
Test: In vitro myelination assay (MBP positive myelin strands, fold myelin pixels above background)
Type: cell-based
Details: Rattus norvegicus, relative to baseline of no added compound; for fold induction at 1 µM: 1.0 μM compound, read-out: Fold myelin pixels above background, 1.0 μM; for fold induction at 10 µM: 10.0 μM compound, read-out: Fold myelin pixels above background, 10.0 μM
Excerpt: In Vitro Myelination Assay
Compounds were screened for their ability to induce myelination using a primary rat mixed cortical cell culture assay, which contains neurons, oligodendrocyte precursor cells, oligodendrocytes, astrocytes and microglia. The assay quantifies myelination by measuring myelin basic protein (MBP) immunofluorescent positive myelin strands from images taken using a Cellomics Array Scan (model Arrayscan VTI HCS Reader) or a Molecular Devices Image Xpress (model IXM XL) high content imager. The myelin strands were quantitated using a custom created myelin detection software program. Test compounds were dissolved in DMSO to make a 10 mM initial stock solution. Dilutions were made in myelination medium to obtain the final solutions for the assay and were tested in primary rat mixed cortical cells at selected doses.
Primary rat mixed cortical cells were prepared from harvested cerebral cortices from postnatal day 1 (P1) rats (P1 Rat CD® IGS pups) were purchased from Charles River) in Complete Dissociation Medium, wherein the meninges were removed and the cortical tissue chopped with a razor blade into ˜1 mm^3 pieces. Tissue from 1-3 pups was collected and placed into 15 ml conical tubes in a total volume of 5 ml of Complete Dissociation Medium. Activated papain (3 ml) was added to each 15 ml conical tube and tissue was incubated at 37° C. for 30 minutes. After the 30 minute incubation, DNase (Sigma D4527; 75 μl of a 1 mg/ml stock) was added to each tube, followed by mechanical trituration using a 2 ml serological pipette and autopipettor to gently dissociate the tissue. Following trituration, larger tissue pieces were allowed to settle by gravity, and the supernatant containing dissociated cells was transferred to a 50 ml conical tube with 4 ml of trypsin inhibitor. Cells were pelleted by centrifugation, resuspended in myelination medium and filtered through a 40 μm filter. Cells were then seeded in 96-well plates (BD Biosciences, Black, PDL-coated, Cat. No. 356640) at 87,500-95,000 cells/well in a final volume of 200 μl of Myelination Medium in the presence or absence of compound and cultured for 14 days in a humidified 37° C. incubator with 5% CO2. Half the medium was removed and replaced with fresh medium containing 1× compound on days 6 and 10. Using a Biotek automatic plate washer (model Biomek® FXP Laboratory Automation Workstation), cells were fixed with 4% paraformaldehyde on day 14, washed with PBS and blocked in 5% normal goat serum (Vector Laboratories, S-1000) in 0.1% PBS-TritonX-100 (PBST) for 1 hour. Cells were stained with 1:500 anti-MBP (Covance, cat # SMI99) primary antibody in 1% normal goat serum in 0.1% PBST for 2 hours at room temperature followed by 2 washes with PBST. A final incubation in secondary antibody (1:1000, Invitrogen, Alexa-488 anti-mouse IgG2b) and 1:10,000 Hoechst dye in 1% normal goat serum in 0.1% PBST was performed for 2 hours at room temperature. Plates were washed with PBS and then scanned on a Cellomics Array Scan using a 10× objective (25 images per well) or the Image Xpress using a 10× objective (9 image per well). Images were analyzed using Vertex myelin detection software (described below) to quantify total MBP myelin pixels per well. Fold myelin pixels above background at two concentrations (1.0 μM and 10.0 μM) relative to baseline of no added compound are reported below in Table 4. Standard deviation for each compound concentration was calculated using all replicates and using a standard deviation formula commonly used in the art.
One of skill in the art would recognize that for this type of primary neuronal mixed cell assay variability between different assay runs is to be expected even though the protocol is the same for each assay run. For instance, variability may be due to small differences in cell viability, cell density, age of the animals, etc.
Vertex Myelin Detection Software: […]

Row | SMILES | fold induction at 1 µM | fold induction at 10 µM
1 | CN1CCCN(c2cc(F)cc(Nc3ncn(-c4ccc(F)cc4F)n3)c2)CC1 [Compound 28, 1-(2,4-difluorophenyl)-N-[3-fluoro-5-(4-methyl-1,4-diazepan-1-yl)phenyl]-1,2,4-triazol-3-amine] | ≤ 1 | ≤ 1
2 | Cc1cc(Nc2ncn(-c3cc(F)cc(F)c3)n2)cc(N2CC(CC(C)C)N3CCC[C@@H]3C2)c1 (stereo partly drawn) [Compound 29, N-[3-[(8aR)-4-isobutyl-3,4,6,7,8,8a-hexahydro-1H-pyrrolo[1,2-a]pyrazin-2-yl]-5-methyl-phenyl]-1-(3,5-difluorophenyl)-1,2,4-triazol-3-amine] | ≤ 1 | ≤ 1
3 | COc1nccc(-n2cnc(Nc3cc(C)cc(N4CCN(C5COC5)CC4)c3)n2)n1 [Compound 30, 1-(2-methoxypyrimidin-4-yl)-N-[3-methyl-5-[4-(oxetan-3-yl)piperazin-1-yl]phenyl]-1,2,4-triazol-3-amine] | ≤ 1 | 100 to 1000
4 | CCc1cc(Nc2ncn(-c3ccc(C)cc3)n2)cc(N2CCN(C3COC3)CC2)c1 [Compound 31, N-[3-ethyl-5-[4-(oxetan-3-yl)piperazin-1-yl]phenyl]-1-(p-tolyl)-1,2,4-triazol-3-amine] | 100 to 1000 | 100 to 1000
5 | Cc1cc(Nc2ncn(-c3cc(F)cc(Cl)c3)n2)cc(N2CCN(C3COC3)CC2)c1 [Compound 32, 1-(3-chloro-5-fluoro-phenyl)-N-[3-methyl-5-[4-(oxetan-3-yl)piperazin-1-yl]phenyl]-1,2,4-triazol-3-amine] | 1000 to 10000 | 100 to 1000
6 | Cc1cc(Nc2ncn(-c3cc(F)cc(F)c3)n2)cc(N2C[C@@H]3C[C@H]2CN3C2COC2)c1 [Compound 34, 1-(3,5-difluorophenyl)-N-[3-methyl-5-[(1S,4S)-2-(oxetan-3-yl)-2,5-diazabicyclo[2.2.1]heptan-5-yl]phenyl]-1,2,4-triazol-3-amine] | 100 to 1000 | ≤ 1
7 | Fc1cc(F)cc(-n2cnc(Nc3cc(C4=CCOCC4)nc(C4CC4)c3)n2)c1 [Compound 35, 2-cyclopropyl-N-[1-(3,5-difluorophenyl)-1,2,4-triazol-3-yl]-6-(3,6-dihydro-2H-pyran-4-yl)pyridin-4-amine] | 100 to 1000 | 10 to 100
8 | Cc1cc(Nc2ncn(-c3cccc(F)c3)n2)cc(C2CN(C3COC3)C2)c1 [Compound 36, 1-(3-fluorophenyl)-N-[3-methyl-5-[1-(oxetan-3-yl)azetidin-3-yl]phenyl]-1,2,4-triazol-3-amine] | 1000 to 10000 | ≤ 1
9 | Cc1cc(Nc2ncn(-c3cc(F)cc(F)c3)n2)cc(N2CCN(C)CC2)c1 [Compound 37, 1-(3,5-difluorophenyl)-N-[3-methyl-5-(4-methylpiperazin-1-yl)phenyl]-1,2,4-triazol-3-amine] | 100 to 1000 | ≤ 1
10 | Cc1cc(Nc2ncn(-c3cc(F)cc(F)c3)n2)cc(NC2CCN(C3COC3)CC2)c1 [Compound 38, N3-[1-(3,5-difluorophenyl)-1,2,4-triazol-3-yl]-5-methyl-N1-[1-(oxetan-3-yl)-4-piperidyl]benzene-1,3-diamine] | 10 to 100 | 10 to 100
11 | Cc1cc(Nc2ncn(-c3ccccc3)n2)cc(C2CCNC2)c1 (stereo not drawn) [Compound 39, N-(3-methyl-5-pyrrolidin-3-yl-phenyl)-1-phenyl-1,2,4-triazol-3-amine] | 1000 to 10000 | ≤ 1
12 | Cc1cc(Nc2ncn(-c3ccnc(F)c3)n2)cc(N2CCN(C3COC3)CC2)c1 [Compound 40, 1-(2-fluoro-4-pyridyl)-N-[3-methyl-5-[4-(oxetan-3-yl)piperazin-1-yl]phenyl]-1,2,4-triazol-3-amine] | 1000 to 10000 | 10 to 100
13 | CCOCC1CCCN1c1cc(F)cc(-n2cnc(Nc3cc(C)cc(N4CCN(C5COC5)CC4)c3)n2)c1 (stereo not drawn) [Compound 41, 1-[3-[2-(ethoxymethyl)pyrrolidin-1-yl]-5-fluoro-phenyl]-N-[3-methyl-5-[4-(oxetan-3-yl)piperazin-1-yl]phenyl]-1,2,4-triazol-3-amine] | 10 to 100 | ≤ 1
14 | Cc1cc(Nc2ncn(-c3ccnc(Cl)c3)n2)cc(N2CCCC2)c1 [Compound 42, 1-(2-chloro-4-pyridyl)-N-(3-methyl-5-pyrrolidin-1-yl-phenyl)-1,2,4-triazol-3-amine] | 10 to 100 | 100 to 1000
15 | Cc1cc(Nc2ncn(-c3ccc(F)c(F)c3)n2)cc(N2CCOCC2)c1 [Compound 43, 1-(3,4-difluorophenyl)-N-(3-methyl-5-morpholino-phenyl)-1,2,4-triazol-3-amine] | 100 to 1000 | 100 to 1000
16 | CC1CCN(c2cc(Nc3ncn(-c4ccccc4)n3)cc(C3CC3)n2)CC1 [Compound 44, 2-cyclopropyl-6-(4-methyl-1-piperidyl)-N-(1-phenyl-1,2,4-triazol-3-yl)pyridin-4-amine] | 1000 to 10000 | 1000 to 10000
17 | Cc1cc(Nc2ncn(-c3ccccc3)n2)cc(N2CCOCC2)c1 [Compound 45, N-(3-methyl-5-morpholino-phenyl)-1-phenyl-1,2,4-triazol-3-amine] | 1000 to 10000 | 100 to 1000
18 | Cc1cc(Nc2ncn(-c3ccc(F)c(F)c3)n2)cc(O[C@@H]2CCN(C3COC3)C2)c1 [Compound 46, 1-(3,4-difluorophenyl)-N-[3-methyl-5-[(3R)-1-(oxetan-3-yl)pyrrolidin-3-yl]oxy-phenyl]-1,2,4-triazol-3-amine] | 1000 to 10000 | 1 to 10
19 | c1ccc(-n2cnc(Nc3cc(C4CC4)cc(N4CCN(C5COC5)CC4)c3)n2)cc1 [Compound 47, N-[3-cyclopropyl-5-[4-(oxetan-3-yl)piperazin-1-yl]phenyl]-1-phenyl-1,2,4-triazol-3-amine] | 100 to 1000 | ≤ 1
20 | Fc1cc(Nc2ncn(-c3ccccc3F)n2)cc(N2CCOCC2)c1 [Compound 49, N-(3-fluoro-5-morpholino-phenyl)-1-(2-fluorophenyl)-1,2,4-triazol-3-amine] | ≤ 1 | 10 to 100
21 | CCc1cc(Nc2ncn(-c3ncncc3F)n2)cc(N2CCN(C3COC3)CC2)c1 [Compound 50, N-[3-ethyl-5-[4-(oxetan-3-yl)piperazin-1-yl]phenyl]-1-(5-fluoropyrimidin-4-yl)-1,2,4-triazol-3-amine] | ≤ 1 | 1000 to 10000
22 | Cc1cc(Nc2ncn(-c3ccccc3)n2)cc(C2CCN(C3(CS(=O)(=O)c4ccccc4)COC3)CC2)c1 [Compound 51, N-[3-[1-[3-(benzenesulfonylmethyl)oxetan-3-yl]-4-piperidyl]-5-methyl-phenyl]-1-phenyl-1,2,4-triazol-3-amine] | 100 to 1000 | 100 to 1000
23 | Cc1cc(Nc2ncn(-c3ccc(F)c(F)c3)n2)cc(O[C@H]2CCN(C3COC3)C2)c1 [Compound 52, 1-(3,4-difluorophenyl)-N-[3-methyl-5-[(3S)-1-(oxetan-3-yl)pyrrolidin-3-yl]oxy-phenyl]-1,2,4-triazol-3-amine] | 1000 to 10000 | ≤ 1
24 | Cc1cc(Nc2ncn(-c3cc(F)cc(F)c3)n2)cc(N2CCN(C)C(CO)C2)c1 (stereo not drawn) [Compound 53, [4-[3-[[1-(3,5-difluorophenyl)-1,2,4-triazol-3-yl]amino]-5-methyl-phenyl]-1-methyl-piperazin-2-yl]methanol] | 10 to 100 | ≤ 1

Source: patent US10766869B2, “Triazoles for the treatment of demyelinating dieases” (Vertex Pharmaceuticals Incorporated, priority 2015, dated 2020)
